As usually defined, the ED50 is the midpoint of the dose-response relation.

The values below come from ChEMBL document CHEMBL1121629, “1-(Aminoalkyl)-6-aryl-4-H-s-triazolo[4,3-a][1,4]benzodiazepines with antianxiety and antidepressant activity” (1980).

Where only a bound is given, the exact number is not on record here.

Common to all, as to type: functional
The species entered for test [1] is Mus musculus. The experiment in a line: Tested for antagonism of bicuculline-induced tonic-extensor convulsions (B) in mice.
The species entered for test [2] is Mus musculus. The experiment in a line: Tested for antagonism of nicotine-induced death (D) in mice.
Test [3] is filed under the species Mus musculus. The test can be described thus: Tested for antagonism of nicotine-induced tonic extensor convulsions (TE) in mice.
The species named for test [4] is Mus musculus. The experiment in a line: Tested for antagonism of pentylenetetrazole-induced clonic convulsions (P) in mice.
The species entered for test [5] is Mus musculus. The experiment in a line: Tested for potentiation of gamma-butyrolactone induced sleep (gamma-B) in mice.
Test [6] is filed under the species Mus musculus. The experiment in a line: Tested for potentiation of yohimbine toxicity in aggregated mice(Y).
Test [7] is filed under the species Mus musculus. The experiment in a line: Prolongation of hypoxic survival time (HS) in mice.
Test [8] is filed under the species Mus musculus. The test can be described thus: Tested for stereotyped gnawing and licking behavior of mice pretreated with apomorphine (AG).
Test [9] is filed under the species Mus musculus. The test can be described thus: Tested for antagonism of oxotremorine hypothermia (OX) in mice.

For the molecule `NCCc1nnc2n1-c1ccc(Cl)cc1C(c1ccccc1)=NC2`, the ED50 in the test listed under Mus musculus [1] was 17.7 mg/kg; in the test filed under Mus musculus [2] it was 6.3 mg/kg; in the test filed under Mus musculus [3] it was 7.1 mg/kg; in the test filed under Mus musculus [4], 10.5 mg/kg; in the test listed under Mus musculus [5] it was 7.4 mg/kg; in the test filed under Mus musculus [6], 50 mg/kg. The ED50 in the test listed under Mus musculus [7] is over 50 mg/kg; in the test listed under Mus musculus [8], 35 mg/kg; in the test listed under Mus musculus [9] it was 4.4 mg/kg.

`CN(C)CCc1nnc2n1-c1ccc(Cl)cc1C(c1ccccc1)=NC2`: the ED50 in the test listed under Mus musculus [1] came to 21 mg/kg; in the test filed under Mus musculus [2], 2.5 mg/kg; in the test listed under Mus musculus [3], 2.8 mg/kg; in the test listed under Mus musculus [4], 25 mg/kg; in the test listed under Mus musculus [5] it was 15 mg/kg; in the test filed under Mus musculus [6], 30 mg/kg. Besides, the ED50 was over 20 mg/kg in the test filed under Mus musculus [7], 28 mg/kg in the test filed under Mus musculus [8] and 6 mg/kg in the test listed under Mus musculus [9].

On to `CN(C)CCCc1nnc2n1-c1ccc(Cl)cc1C(c1ccccc1)=NC2`, for which the median effective dose (ED50) in the test listed under Mus musculus [1] is 56 mg/kg; in the test listed under Mus musculus [2], 10 mg/kg; in the test listed under Mus musculus [3] it was 10 mg/kg; in the test filed under Mus musculus [4], 13.3 mg/kg; in the test filed under Mus musculus [5] it was 36.6 mg/kg; in the test filed under Mus musculus [6], over 100 mg/kg. In addition, the results for the 50% effective dose (ED50) in the test listed under Mus musculus [7], in the test filed under Mus musculus [8] and in the test filed under Mus musculus [9] were over 50 mg/kg, 42 mg/kg and 75 mg/kg, respectively.

Consider `NCc1nnc2n1-c1ccc(Cl)cc1C(c1ccccc1)=NC2`, for which the median effective dose (ED50) in the test listed under Mus musculus [1] was 14.9 mg/kg; in the test listed under Mus musculus [2] it was 0.28 mg/kg; in the test listed under Mus musculus [3], 0.22 mg/kg; in the test filed under Mus musculus [4], 0.35 mg/kg; in the test filed under Mus musculus [5], 0.8 mg/kg; in the test filed under Mus musculus [6], 35.4 mg/kg. The median effective dose (ED50) in the test listed under Mus musculus [7] is 0.8 mg/kg; in the test listed under Mus musculus [8], 2.6 mg/kg; in the test listed under Mus musculus [9] it was 29.7 mg/kg.

For `CNC(C)c1nnc2n1-c1ccc(Cl)cc1C(c1ccccc1)=NC2` (stereo unspecified), the ED50 in the test listed under Mus musculus [1] is 9 mg/kg; in the test listed under Mus musculus [2], 1 mg/kg; in the test filed under Mus musculus [3], 0.9 mg/kg; in the test filed under Mus musculus [4], 4.4 mg/kg; in the test listed under Mus musculus [5], 3.7 mg/kg; in the test filed under Mus musculus [6] it was 30 mg/kg. Further, the median effective dose (ED50) in the test listed under Mus musculus [7] is 0.5 mg/kg; in the test filed under Mus musculus [8], 50 mg/kg; in the test listed under Mus musculus [9], over 50 mg/kg.

For `CC(N)c1nnc2n1-c1ccc(Cl)cc1C(c1ccccc1Cl)=NC2` (stereo unspecified), the ED50 in the test filed under Mus musculus [1] was 0.2 mg/kg; in the test filed under Mus musculus [2], 0.025 mg/kg; in the test listed under Mus musculus [3], 0.023 mg/kg; in the test listed under Mus musculus [4] it was 2.2 mg/kg; in the test listed under Mus musculus [5] it was 0.2 mg/kg; in the test listed under Mus musculus [6], over 50 mg/kg. Further, the median effective dose (ED50) is 0.02 mg/kg in the test listed under Mus musculus [7], over 50 mg/kg in the test filed under Mus musculus [8] and over 50 mg/kg in the test filed under Mus musculus [9].

For the molecule `CCN(CC)CCc1nnc2n1-c1ccc(Cl)cc1C(c1ccccc1)=NC2`, the median effective dose (ED50) was over 50 mg/kg in the test listed under Mus musculus [1]; 2 mg/kg in the test filed under Mus musculus [2]; 2 mg/kg in the test listed under Mus musculus [3]; 25 mg/kg in the test filed under Mus musculus [4]; 15 mg/kg in the test listed under Mus musculus [5]; over 50 mg/kg in the test filed under Mus musculus [6]. For the same molecule, the ED50 in the test listed under Mus musculus [7] is 40 mg/kg; in the test listed under Mus musculus [8], over 50 mg/kg; in the test listed under Mus musculus [9], 42 mg/kg.

Turning to `CN(C)Cc1nnc2n1-c1ccc(Cl)cc1C(c1ccccc1Cl)=NC2`, the ED50 in the test listed under Mus musculus [1] was 0.8 mg/kg; in the test listed under Mus musculus [2], 0.06 mg/kg; in the test listed under Mus musculus [3] it was 0.06 mg/kg; in the test filed under Mus musculus [4], 0.1 mg/kg; in the test filed under Mus musculus [5] it was 0.3 mg/kg; in the test filed under Mus musculus [6], over 30 mg/kg. Besides, the ED50 is 0.1 mg/kg in the test filed under Mus musculus [7], 17.8 mg/kg in the test filed under Mus musculus [8] and over 30 mg/kg in the test filed under Mus musculus [9].

In the case of `CNCc1nnc2n1-c1ccc(Cl)cc1C(c1ccccc1)=NC2`, the median effective dose (ED50) in the test listed under Mus musculus [1] is 0.5 mg/kg; in the test listed under Mus musculus [2], 0.18 mg/kg; in the test filed under Mus musculus [3], 0.16 mg/kg; in the test filed under Mus musculus [4], 0.4 mg/kg; in the test filed under Mus musculus [5], 0.1 mg/kg; in the test listed under Mus musculus [6] it was over 50 mg/kg. Moreover, the median effective dose (ED50) in the test filed under Mus musculus [7] worked out at 40 mg/kg; in the test filed under Mus musculus [8] it was 12.5 mg/kg; in the test listed under Mus musculus [9], 3.7 mg/kg.
